Where “and” joins values, the source holds several entries; their conditions need not be identical. Identical values can stand only once.
Experiments:
[1] = system: SH-SY5Y neuroblastoma cells; assay: Neuroprotection against H2O2 in SH-SY5Y cells (MTT assay); assay type: cell-based, human; settings: 3 h pretreatment, both concentrations (1 μM and 5 μM), then 400 μM H2O2 24 h
Protocol: Treatment of SH-SY5Y cells with 400 μM H2O2 for 24 h led to a reduction of cell viability of 72–76% (Figure 3). The protective effect of each compound was determined by pretreating the cells with the test compound for 3 h at the non-toxic doses of 1 μM and 5 μM, and subsequent treatment with 400 μM H2O2 for an additional 24 h.
(§1) SH-SY5Y neuroblastoma cells (cat. CRL-2266, ATCC) were cultured in a 1:1 mixture of Eagle’s Minimum Essential Medium (cat. 15-010-CVR, Corning) and Ham’s F12 medium (cat. 10-080-CVR, Corning). This medium was supplemented with 10% (v/v) Fetal Bovine Serum (cat. 35-079-CV, Corning), 1% (v/v) Glutamine (cat. ECB3000D, Euro Clone) and 1% (v/v) Penicillin—Streptomycin (cat.30-002-CI, Corning). Cells were cultivated at 37 °C with 5% CO2 at saturated humidity.
Determination of neuroprotection against H2O2 was performed using the MTT assay at 24 h. On day 1, 25,000 cells/well were seeded into 96-well plates in a volume of 100 μL. On day 2, the cells were pretreated (3 h) with two drug concentrations (1 μM and 5 μM) before being incubated with 400 μM H2O2 for 24 h. In all the experiments, the various drug-solvents (EtOH, DMSO) were added in each control to evaluate a possible solvent cytotoxicity. After 24 h incubation, MTT (0.5 mg/mL) was added to each well, and after 3–4 h incubation at 37 °C, the supernatant was removed. The formazan crystals were solubilized using 100 μL of DMSO/EtOH (1:1, v/v) and the absorbance values at 570 and 630 nm were determined on the microplate reader Victor 3 from PerkinElmer Life Sciences (Waltham, MA, USA).
Data were analyzed by applying the one-way repeated measures analysis of variance, and Bonferroni’s multiple comparison test followed as a post hoc test. Results are reported as mean SD of at least two to three independent experiments, performed in triplicate. Statistical significance was accepted at p < 0.05.

[2] = molecular target: T1, serotonin 5-HT7 receptor (5-HT7A) (Homo sapiens, UniProt P34969); assay: 5-HT7 receptor radioligand competition binding ([3H]-SB269970); settings: human cloned 5-HT7A receptor, HEK293 membranes, 2 nM [3H]-SB269970; ± S.E.M., n = 3 in duplicate; read-out: Affinity Ki 5-HT7
T1 construct: expressed in transfected cells
Protocol: (§2) As a first step, competition radioligand binding assays were carried out for all the compounds at the single concentration of 10 µM, on membrane preparations from stable cell lines heterologously expressing the human cloned 5-HT1A, 5-HT2A, or 5-HT7 receptors. […] For the affinity determination at dopamine receptor subtypes, membrane fractions of human dopamine D2s, D3, D1, and D5 receptor-expressing cells were used. They were co-incubated with [^3H]spiperone (for D2s and D3 receptor) or [^3H]SCH23390 (for D1 and D5 receptor) and appropriate concentrations of test compound for 120 min. Bound radioligand was separated from the free ligand using filtration. Radioactivity was measured by liquid scintillation counting.
The affinity of the compounds for serotonin 5-HT7 receptor was evaluated in membrane preparations from HEK293 cells stably expressing the human cloned 5-HT7A receptor, following previously described procedures with minor modifications. Competition binding experiments were performed using 2 nM [^3H]-SB269970 (34.5 Ci/mmol, 0.25 mCi/mL, Perkin Elmer NET1198U250UC) as radioligand. […] Methiothepine was included in the assays as reference compound. Assays were carried out in duplicate in 96-well assay plates, in assay buffer (50 mM Tris-HCl, 4 mM MgCl2, 1 mM ascorbic acid, 0.1 mM pargyline, pH = 7.4). Assay mixtures were incubated at 37 °C for 60 min, followed by filtration through GF/C glass filter plates, and washing with ice-cold assay buffer. Affinity (equilibrium dissociation constant, Ki) of the compounds was calculated from competition binding curves as indicated above.

[3] = molecular target: T2, serotonin 5-HT1A receptor (Homo sapiens, UniProt P08908); assay: 5-HT1A receptor radioligand competition binding ([3H]-8-Hydroxy-DPAT); settings: for Ki ratio of the trimethylene and tetramethylene homologs at 5-HT1A: Ki of a (trimethylene) / Ki of b (tetramethylene) homolog, given as a/b; for Ki: human cloned receptor, HEK293 membranes, 1 nM [3H]-8-Hydroxy-DPAT, ± S.E.M., n = 3 in duplicate, read-out: Affinity Ki 5-HT1A
T2 construct: expressed in transfected cells
T2 sequence (P08908 1-422): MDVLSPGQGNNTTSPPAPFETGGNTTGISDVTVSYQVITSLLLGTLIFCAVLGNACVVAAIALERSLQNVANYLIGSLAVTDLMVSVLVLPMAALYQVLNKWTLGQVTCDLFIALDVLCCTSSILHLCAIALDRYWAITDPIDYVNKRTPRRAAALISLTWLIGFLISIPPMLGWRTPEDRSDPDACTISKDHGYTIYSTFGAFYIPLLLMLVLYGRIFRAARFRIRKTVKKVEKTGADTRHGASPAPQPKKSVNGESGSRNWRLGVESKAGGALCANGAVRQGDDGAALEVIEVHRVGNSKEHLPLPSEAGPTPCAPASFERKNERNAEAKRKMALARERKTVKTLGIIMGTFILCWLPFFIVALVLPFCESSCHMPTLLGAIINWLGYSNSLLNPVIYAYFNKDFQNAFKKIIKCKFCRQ
Protocol: as §2
The affinity of the compounds for serotonin 5-HT1A receptor was evaluated in membrane preparations from HEK293 cells stably expressing the human cloned receptor, following previously described procedures with minor modifications. Competition binding experiments were performed using 1 nM [^3H]-8-Hydroxy-DPAT (1 mCi/mL, PerkinElmer NET929250UC) as radioligand. Nonspecific binding was assessed in the presence of 10 µM serotonin. […] Assays were carried out in duplicate in 96-well assay plates, in assay buffer (50 mM Tris-HCl, 5 mM MgSO4, pH = 7.4). Assay mixtures were incubated at 37 °C for 120 min, followed by filtration through GF/C glass filter plates, and washed with ice-cold wash buffer (50 mM Tris-HCl, pH = 7.4).

[4] = system: SH-SY5Y neuroblastoma cells; assay: Cytotoxicity in SH-SY5Y cells (MTT assay); assay type: cell-based, human; settings: 48 h, dose range 0.1 to 100 μM
Protocol: Initially, the cytotoxicity of the target compounds was assessed by treating SH-SY5Y cells for 48 h with various concentrations of compounds (0.1 to 100 μM).
as §1
Determination of cell growth was performed using the MTT assay at 48 h. On day 1, 25,000 cells/well were seeded into 96-well plates in a volume of 100 μL. On day 2, the various drug concentrations ([…]–100 μM) were added. In all the experiments, the various drug-solvents (EtOH, DMSO) were added in each control to evaluate possible solvent cytotoxicity. After the established incubation time with drugs (48 h), MTT (0.5 mg/mL) was added to each well, and after 3–4 h incubation at 37 °C, the supernatant was removed. The formazan crystals were solubilized using 100 μL of DMSO/EtOH (1:1, v/v) and the absorbance values at 570 and 630 nm were determined on the microplate reader Victor 3 (PerkinElmer Life Sciences, Waltham, MA, USA).

T1 sequence (P34969 1-445 isoform P34969-2): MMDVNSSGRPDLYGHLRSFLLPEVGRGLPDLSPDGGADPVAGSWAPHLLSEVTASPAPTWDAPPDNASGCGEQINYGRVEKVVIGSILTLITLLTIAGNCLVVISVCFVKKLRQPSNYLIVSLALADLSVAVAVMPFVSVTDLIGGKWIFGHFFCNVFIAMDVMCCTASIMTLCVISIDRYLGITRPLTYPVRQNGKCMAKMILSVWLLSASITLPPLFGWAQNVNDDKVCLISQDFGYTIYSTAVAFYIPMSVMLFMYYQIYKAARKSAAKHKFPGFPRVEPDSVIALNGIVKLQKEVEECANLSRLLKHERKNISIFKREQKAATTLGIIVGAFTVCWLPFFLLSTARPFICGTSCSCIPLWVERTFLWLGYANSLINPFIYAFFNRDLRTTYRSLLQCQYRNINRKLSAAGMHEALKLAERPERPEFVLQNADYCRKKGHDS

Row | SMILES | recovery of cell viability vs 400 μM H2O2 alone (in words) [1] | Ki [2] [nM] | Ki ratio of the trimethylene and tetramethylene homologs at 5-HT1A [3] | Ki [3] | cytotoxicity (in words) [4]
1 | CC1Oc2ccc(OCCCN3CCN(c4ncccc4-c4ccncc4)CC3)cc2NC1=O (centres unmarked) [Compound 8a, 6-(3-(4-([3,4’-Bipyridin]-2-yl)piperazin-1-yl)propoxy)-2-methyl-2H-benzo[b][1,4]oxazin-3(4H)-one] | statistically significant recovery of cell viability | 10.7 ± 0.7 | 0.7 | < 17.6 nM and 13.1 nM | –
2 | CC1Oc2ccc(OCCCCN3CCN(c4ncccc4-c4ccncc4)CC3)cc2NC1=O (centres unmarked) [Compound 8b, 6-(4-(4-([3,4’-Bipyridin]-2-yl)piperazin-1-yl)butoxy)-2-methyl-2H-benzo[b][1,4]oxazin-3(4H)-one] | statistically significant recovery of cell viability | 9.38 ± 0.42 | – | < 17.6 nM and 17.6 nM | –
3 | COc1ccc(-c2cc(F)ccc2N2CCN(CCCCn3ncc(=O)n(C)c3=O)CC2)cc1 [Compound 9b, 2-(4-(4-(5-Fluoro-4’-methoxy-[1,1’-biphenyl]-2-yl)piperazin-1-yl)butyl)-4-methyl-1,2,4-triazine-3,5(2H,4H)-dione] | statistically significant recovery of cell viability | 45 ± 3.4 | – | 23.9 ± 4.9 nM | –
4 | Cn1c(=O)cnn(CCCN2CCN(c3ccc(F)cc3-c3ccc(C#N)cc3)CC2)c1=O [Compound 10a, 5’-Fluoro-2’-(4-(3-(4-methyl-3,5-dioxo-4,5-dihydro-1,2,4-triazin-2(3H)-yl)propyl)piperazin-1-yl)-[1,1’-biphenyl]-4-carbonitrile] | – | 45.7 ± 1.3 | – | 1090 ± 154 nM | –
5 | Cn1c(=O)cnn(CCCCN2CCN(c3ccc(F)cc3-c3ccc(C#N)cc3)CC2)c1=O [Compound 10b, 5’-Fluoro-2’-(4-(4-(4-methyl-3,5-dioxo-4,5-dihydro-1,2,4-triazin-2(3H)-yl)butyl)piperazin-1-yl)-[1,1’-biphenyl]-4-carbonitrile] | – | 36.5 ± 5.2 | – | 43.4 ± 6.2 nM | –
6 | Cn1c(=O)cnn(CCCN2CCN(c3ncccc3-c3ccncc3)CC2)c1=O [Compound 11a, 2-(3-(4-([3,4’-Bipyridin]-2-yl)piperazin-1-yl)propyl)-4-methyl-1,2,4-triazine-3,5(2H,4H)-dione] | – | 44.5 ± 2.2 | 52 | 269 ± 18 nM | not cytotoxic
7 | Cn1c(=O)cnn(CCCCN2CCN(c3ncccc3-c3ccncc3)CC2)c1=O [Compound 11b, 2-(4-(4-([3,4’-Bipyridin]-2-yl)piperazin-1-yl)butyl)-4-methyl-1,2,4-triazine-3,5(2H,4H)-dione] | – | 79.4 ± 9 | – | < 17.6 nM and 5.19 nM | not cytotoxic
8 | Cc1cc(=O)oc2cc(OCCCN3CCN(c4ncccc4-c4ccncc4)CC3)ccc12 [Compound 12a, 7-(3-(4-([3,4’-Bipyridin]-2-yl)piperazin-1-yl)propoxy)-4-methyl-2H-chromen-2-one] | – | 42.5 ± 6.2 | 3.7 | 41.5 ± 3 nM | –
9 | Cc1cc(=O)oc2cc(OCCCCN3CCN(c4ncccc4-c4ccncc4)CC3)ccc12 [Compound 12b, 7-(4-(4-([3,4’-Bipyridin]-2-yl)piperazin-1-yl)butoxy)-4-methyl-2H-chromen-2-one] | – | 52.2 ± 10.6 | – | < 17.6 nM and 11.3 nM | –

From article PMC8877291, “Design and Synthesis of Arylpiperazine Serotonergic/Dopaminergic Ligands with Neuroprotective Properties” (Molecules, 2022)
